Data from patent US20220380347A1, “INHIBITORS OF CYSTEINE PROTEASES AND METHODS OF USE THEREOF” (Pardes Biosciences, Inc., priority 2020, published 2022).

Key:
229E Mpro = 229E Mpro (Human coronavirus 229E, UniProt P0C6X1); test: 229E Mpro enzymatic assay (standard methods, SARS-CoV2 Mpro assay given as exemplary); format: biochemical, human coronavirus (HCov) 229E; settings: 229E Mpro EC50
Method in brief: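 Run by standard methods, with the SARS-CoV-2 Mpro protocol given as the model: E. coli-expressed C-His6 protease at 25 nM and substrate at 25 μM (Km 13.5 μM). Buffer pH 7.3 with 5 mM TCEP and 0.1% BSA; % inhibition versus controls fitted to variable-slope log(inhibitor)-response for IC50.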

[1] = biological target: COVID-19 (nCoV-2019, SARS-CoV2) Mpro (Severe acute respiratory syndrome coronavirus 2, UniProt P0DTD1); test: COVID-19 (nCoV-2019, SARS-CoV2) Mpro enzymatic assay; format: biochemical; settings: 25 nM Mpro, 25 μM substrate; read-out: COVID-19 Mpro IC50
HCov OC43 = test: HCoV OC43 cytopathic effect (CPE) assay, CellTiter Glo; format: cell-based, human coronavirus (HCov) OC43; settings: Betacoronavirus 1, OC43, read-out: OC43 IC50 (uM) MEDIAN, median

Sequence of 229E Mpro (P0C6X1 2966-3267): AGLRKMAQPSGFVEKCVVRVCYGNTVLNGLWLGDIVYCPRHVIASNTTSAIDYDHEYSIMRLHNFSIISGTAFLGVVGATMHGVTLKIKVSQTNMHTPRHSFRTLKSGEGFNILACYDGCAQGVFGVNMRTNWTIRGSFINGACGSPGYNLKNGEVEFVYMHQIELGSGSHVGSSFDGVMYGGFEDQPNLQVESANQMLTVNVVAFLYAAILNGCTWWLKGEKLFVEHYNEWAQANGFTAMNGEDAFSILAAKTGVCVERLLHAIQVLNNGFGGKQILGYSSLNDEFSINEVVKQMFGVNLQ

CO[C@@H]1C[C@H](C(=O)N(c2ccc(S(F)(F)(F)(F)F)cc2)C(C(=O)NC(C)C2CCCCN2)c2cccnc2)N(C#N)C1 (stereo partly drawn) [Compound 1123, (2R,4R)-1-cyano-4-methoxy-N-[2-oxo-2-[1-(2-piperidyl)ethylamino]-1-(3-pyridyl)ethyl]-N-[4-(pentafluoro-λ^6-sulfanyl)phenyl]pyrrolidine-2-carboxamide]
EC50 (229E Mpro): < 2000 nM
IC50 [1]: < 2 µM
IC50 (HCov OC43): < 2 µM

O=C(NC1CCC(F)(F)CC1)C(c1cncc(F)c1)N(C(=O)C1CCC1(O)O)c1ccc(S(F)(F)(F)(F)F)cc1 (stereo not drawn) [Compound 1133a, N-[2-[(4,4-difluorocyclohexyl)amino]-1-(5-fluoro-3-pyridyl)-2-oxo-ethyl]-2,2-dihydroxy-N-[4-(pentafluoro-λ6-sulfanyl)phenyl]cyclobutanecarboxamide]
EC50 (229E Mpro): > 30000 nM
IC50 [1]: > 30 µM
IC50 (HCov OC43): > 30 µM

COC1CN(C#N)C(C)(C(=O)N(c2ccc(S(F)(F)(F)(F)F)cc2)C(C(=O)NC2CCC(F)(F)CC2)c2cncc(F)c2)C1 (stereo not drawn) [Compound 1135b, 1-cyano-N-[2-[(4,4-difluorocyclohexyl)amino]-1-(5-fluoro-3-pyridyl)-2-oxo-ethyl]-4-methoxy-2-methyl-N-[4-(pentafluoro-λ^6-sulfanyl)phenyl]pyrrolidine-2-carboxamide]
EC50 (229E Mpro): > 30000 nM
IC50 [1]: > 30 µM
IC50 (HCov OC43): > 30 µM

N#CN1CC2C[C@@]1(C(=O)N(c1ccc(S(F)(F)(F)(F)F)cc1)C(C(=O)NC1CCC(F)(F)CC1)c1cncc(F)c1)CO2 (stereo partly drawn) [Compound 1136b]
EC50 (229E Mpro): 2000 to 10000 nM
IC50 [1]: 2 to 10 µM
IC50 (HCov OC43): > 30 µM

CO[C@@H]1C[C@H](C(=O)N(c2ccc(S(F)(F)(F)(F)F)cc2)C(C(=O)N2CCN(C(=O)OC(C)(C)C)CC2)c2cccnc2)N(C#N)C1 (stereo partly drawn) [Compound 1149b, tert-butyl-4-[2-[N-[(2R,4R)-1-cyano-4-methoxy-pyrrolidine-2-carbonyl]-4-(pentafluoro-λ6-sulfanyl)anilino]-2-(3-pyridyl)acetyl]piperazine-1-carboxylate]
EC50 (229E Mpro): < 2000 nM
IC50 [1]: < 2 µM
IC50 (HCov OC43): < 2 µM

C[C@@]1(O)C[C@H](C(=O)N(c2ccc(S(F)(F)(F)(F)F)cc2)C(C(=O)NC2CCC(F)(F)CC2)c2cccnc2F)N(C#N)C1 (stereo partly drawn) [Compound 1158, (2R,4R)-1-cyano-N-[2-[(4,4-difluorocyclohexyl)amino]-1-(2-fluoro-3-pyridyl)-2-oxo-ethyl]-4-hydroxy-4-methyl-N-[4-(pentafluoro-λ6-sulfanyl)phenyl]pyrrolidine-2-carboxamide]
EC50 (229E Mpro): < 2000 nM
IC50 [1]: < 2 µM
IC50 (HCov OC43): < 2 µM

N#CN1CC(=O)NCC1C(=O)N(c1ccc(S(F)(F)(F)(F)F)cc1)C(C(=O)NC1CCC(F)(F)CC1)c1cncc(F)c1 (stereo not drawn) [Compound 1160, 1-cyano-N-[2-[(4,4-difluorocyclohexyl)amino]-1-(5-fluoro-3-pyridyl)-2-oxo-ethyl]-5-oxo-N-[4-(pentafluoro-λ^6-sulfanyl)phenyl]piperazine-2-carboxamide]
EC50 (229E Mpro): < 2000 nM
IC50 [1]: < 2 µM
IC50 (HCov OC43): < 2 µM

CN1CC(C(=O)N(c2ccc(S(F)(F)(F)(F)F)cc2)C(C(=O)NC2CCC(F)(F)CC2)c2cncc(F)c2)N(C#N)CC1=O (stereo not drawn) [Compound 1161, 1-cyano-N-[2-[(4,4-difluorocyclohexyl)amino]-1-(5-fluoro-3-pyridyl)-2-oxo-ethyl]-4-methyl-5-oxo-N-[4-(pentafluoro-λ^6-sulfanyl)phenyl]piperazine-2-carboxamide]
EC50 (229E Mpro): < 2000 nM
IC50 [1]: < 2 µM
IC50 (HCov OC43): < 2 µM

CO[C@@H]1C[C@H](C(=O)N(c2ccc(S(F)(F)(F)(F)F)cc2)C(C(=O)N2CCC3(COC3)C2)c2cccnc2)N(C#N)C1 (stereo partly drawn) [Compound 1174, (2R,4R)-1-cyano-4-methoxy-N-[2-(2-oxa-7-azaspiro[3.4]octan-7-yl)-2-oxo-1-(3-pyridyl)ethyl]-N-[4-(pentafluoro-λ^6-sulfanyl)phenyl]pyrrolidine-2-carboxamide]
EC50 (229E Mpro): < 2000 nM
IC50 [1]: 2 to 10 µM
IC50 (HCov OC43): < 2 µM

CO[C@@H]1C[C@H](C(=O)N(c2ccc(S(F)(F)(F)(F)F)cc2)C(C(=O)NCC(=O)N2CCCC2)c2cccnc2)N(C#N)C1 (stereo partly drawn) [Compound 1182, (2R,4R)-1-cyano-4-methoxy-N-[2-oxo-2-[(2-oxo-2-pyrrolidin-1-yl-ethyl)amino]-1-(3-pyridyl)ethyl]-N-[4-(pentafluoro-λ6-sulfanyl)phenyl]pyrrolidine-2-carboxamide]
EC50 (229E Mpro): < 2000 nM
IC50 [1]: < 2 µM
IC50 (HCov OC43): < 2 µM

CO[C@@H]1C[C@H](C(=O)N(c2ccc(S(F)(F)(F)(F)F)cc2)C(C(=O)N2CCN(C)C(=O)C2)c2cccnc2)N(C#N)C1 (stereo partly drawn) [Compound 1188]
EC50 (229E Mpro): < 2000 nM
IC50 [1]: 2 to 10 µM
IC50 (HCov OC43): < 2 µM

CO[C@@H]1C[C@H](C(=O)N(c2ccc(S(F)(F)(F)(F)F)cc2)C(C(=O)NC2CCC(F)(F)CC2)c2cnccc2C#N)N(C#N)C1 (stereo partly drawn) [Compound 1200, (2R,4R)-1-cyano-N-[l-(4-cyano-3-pyridyl)-2-[(4,4-difluorocyclohexyl)amino]-2-oxo-ethyl]-4-methoxy-N-[4-(pentafluoro-λ6-sulfanyl)phenyl]pyrrolidine-2-carboxamide]
EC50 (229E Mpro): < 2000 nM
IC50 [1]: < 2 µM
IC50 (HCov OC43): < 2 µM

CN(C(=O)C(c1cccnc1)N(C(=O)[C@H]1CCCN1C#N)c1ccc(C(C)(C)C)cc1)C1CCCCC1 (stereo partly drawn) [Compound 1228, (2R)—N-(4-(tert-butyl)phenyl)-1-cyano-N-(2-(cyclohexyl(methyl)amino)-2-oxo-1-(pyridin-3-yl)ethyl)pyrrolidine-2-carboxamide]
EC50 (229E Mpro): < 2000 nM
IC50 [1]: 2 to 10 µM
IC50 (HCov OC43): 10 to 30 µM

CO[C@@H]1C[C@H](C(=O)N(c2ccc(S(F)(F)(F)(F)F)cc2)C(C(=O)N(CCO)C2CCC(F)(F)CC2)c2cccnc2)N(C(=O)OCc2ccccc2)C1 (stereo partly drawn) [Compound 1244, Benzyl (2R,4R)-2-[[2-[(4,4-difluorocyclohexyl)-(2-hydroxyethyl)amino]-2-oxo-1-(3-pyridyl)ethyl]-[4-(pentafluoro-λ^6-sulfanyl)phenyl]carbamoyl]-4-methoxy-pyrrolidine-1-carboxylate]
EC50 (229E Mpro): > 30000 nM
IC50 [1]: > 30 µM
IC50 (HCov OC43): > 30 µM

N#CN1CC[C@H]2C[C@]21C(=O)N(c1ccc(S(F)(F)(F)(F)F)cc1)C(C(=O)NC1CCC(F)(F)CC1)c1cncc(F)c1 (stereo partly drawn) [Compound 1261, (1R,5S)-2-cyano-N-[2-[(4,4-difluorocyclohexyl)amino]-1-(5-fluoro-3-pyridyl)-2-oxo-ethyl]-N-[4-(pentafluoro-λ^6-sulfanyl)phenyl]-2-azabicyclo[3.1.0]hexane-1-carboxamide]
EC50 (229E Mpro): 2000 to 10000 nM
IC50 [1]: > 30 µM
IC50 (HCov OC43): > 30 µM

N#CN1CC[C@H]2C[C@]21C(=O)N(c1ccc(S(F)(F)(F)(F)F)cc1)C(C(=O)NC1CCC(F)(F)CC1)c1cnccc1C(F)(F)F (stereo partly drawn) [Compound 1263, (1R,5S)-2-cyano-N-[2-[(4,4-difluorocyclohexyl)amino]-2-oxo-1-[4-(trifluoromethyl)-3-pyridyl]ethyl]-N-[4-(pentafluoro-λ^6-sulfanyl)phenyl]-2-azabicyclo[3.1.0]hexane-1-carboxamide]
EC50 (229E Mpro): 10000 to 30000 nM
IC50 [1]: > 30 µM
IC50 (HCov OC43): > 30 µM

CO[C@@H]1C[C@H](C(=O)N(c2ccc(S(F)(F)(F)(F)F)cc2)C(C(=O)NCCN2CCN(C(=O)OC(C)(C)C)CC2)c2cccnc2)N(C#N)C1 (stereo partly drawn) [Compound 1267, tert-butyl4-[2-[[2-[N-[(2R,4R)-1-cyano-4-methoxy-pyrrolidine-2-carbonyl]-4-(pentafluoro-λ^6-sulfanyl)anilino]-2-(3-pyridyl)acetyl]amino]ethyl]piperazine-1-carboxylate]
EC50 (229E Mpro): < 2000 nM
IC50 [1]: 2 to 10 µM
IC50 (HCov OC43): < 2 µM

N#CN1CCC(F)(F)C1C(=O)N(c1ccc(S(F)(F)(F)(F)F)cc1)C(C(=O)NC1CCOCC1)c1cncc(F)c1 (stereo not drawn) [Compound 1274, 1-cyano-3,3-difluoro-N-[1-(5-fluoro-3-pyridyl)-2-oxo-2-(tetrahydropyran-4-ylamino)ethyl]-N-[4-(pentafluoro-λ^6-sulfanyl)phenyl]pyrrolidine-2-carboxamide]
EC50 (229E Mpro): < 2000 nM
IC50 [1]: < 2 µM
IC50 (HCov OC43): < 2 µM

N#CC1(C(=O)N(c2ccc(S(F)(F)(F)(F)F)cc2)C(C(=O)NC2CCC(F)(F)CC2)c2cncc(F)c2)CC1 (stereo not drawn) [Compound 1289, 1-cyano-N-[2-[(4,4-difluorocyclohexyl)amino]-1-(5-fluoro-3-pyridyl)-2-oxo-ethyl]-N-[4-(pentafluoro-λ^6-sulfanyl)phenyl]cyclopropanecarboxamide]
EC50 (229E Mpro): > 30000 nM
IC50 [1]: > 30 µM
IC50 (HCov OC43): > 30 µM

[2H]C(C(=O)NC1CCOCC1)(c1cnccn1)N(C(=O)[C@H]1C[C@@](C)(O)CN1C#N)c1ccc(S(F)(F)(F)(F)F)cc1 (stereo partly drawn) [Compound 1305, (2R,4R)-1-cyano-N-[1-deuterio-2-oxo-1-pyrazin-2-yl-2-(tetrahydropyran-4-ylamino)ethyl]-4-hydroxy-4-methyl-N-[4-(pentafluoro-λ^6-sulfanyl)phenyl]pyrrolidine-2-carboxamide]
EC50 (229E Mpro): > 30000 nM
IC50 [1]: > 30 µM
IC50 (HCov OC43): > 30 µM

CO[C@@H]1C[C@H](C(=O)N(c2ccc(S(F)(F)(F)(F)F)cc2)C(C(=O)NC2CCC(F)(F)CC2)c2nncn2C(C)C)N(C#N)C1 (stereo partly drawn) [Compound 1307, (2R,4R)-1-cyano-N-[2-[(4,4-difluorocyclohexyl)amino]-1-(4-isopropyl-1,2,4-triazol-3-yl)-2-oxo-ethyl]-4-methoxy-N-[4-(pentafluoro-λ6-sulfanyl)phenyl]pyrrolidine-2-carboxamide]
EC50 (229E Mpro): > 30000 nM
IC50 [1]: > 30 µM
IC50 (HCov OC43): > 30 µM
